# Laboratory results: patent US20240366731A1, “ORAL ALGAL OIL BASED GASTRO-INTESTINAL TRACT PERMEABLE PEPTIDE COMPOSITION” (CELAGENEX RESEARCH (INDIA) PVT. LTD., priority 2021, published 2024)
# “And” between values parts separate entries of the source, which are not always exact repeats. Equal values may be shown once.
# Assay: Study of Composition-3 vs Januvia (Sitagliptin) vs Placebo in T2D adult patients with inadequate glycemic control, 04-week treatment
# Format: in vivo, human
# Experimental: A study of Composition-3 vs Januvia (Sitagliptin) vs Placebo in adult patients with inadequate glycemic control • 1. Composition-3—Oral insulin—8 mg • 2. Reference—Januvia (Sitagliptin)—100 mg • 3. Placebo
# The pivotal study was involved 36 patients divided in to 3 groups of 12 each randomized to 1:1:1 into three cohorts dosed with 8 mg of Composition-3at night, Januvia 100 mg (Sitagliptin) at night and placebo at night.
# Patient population-T2D adult patients above age of 21 years with inadequate glycemic control who were managing their condition with diet and metformin monotherapy.
# • HbA1c ≥7.5% on metformin ≥500 mg daily • At time of randomization, patients were treated for their diabetes by diet, exercise, and metformin (≥500 mg/day; any type and regimen). […] A negative urine pregnancy test was obtained during Visit 2 and at Visit 4 (prior to randomization). • Males and females of childbearing potential used two methods of contraception (double barrier method), one of which must be an acceptable barrier method from the time of screening to the last study visit
# • Patients who meet any of the following criteria was not eligible for this study. • Presence of any clinically significant endocrine disease according to the Investigator (euthyroid patients on replacement therapy was included if the dosage of thyroxine is stable for at least six weeks prior to Screening Visit). • Clinical diagnosis of Type 1 diabetes. • Presence or history of cancer within the past five years except for adequately treated localized basal cell skin cancer or in situ uterine cervical cancer. • Laboratory abnormalities at screening including: • 1. C-peptide <1.0 ng/mL. • 2. Positive pregnancy test in females of childbearing potential (at screening and start of run-in period). • 3. Abnormal serum thyrotropin (TSH) levels >1.5 times the upper limit of normal. • 4. Positive test for hepatitis B surface antigen and/or hepatitis C antibody. • 5. Positive test for HIV. • 6. Serum Cr >1.4 mg/dl in males, >1.3 mg/dl in females. • 7. Any relevant abnormality interfering with the efficacy or the safety assessments during study drug administration. • Use of the following medications: • 1. History of use of insulin for greater than one week in the last six months and any use of insulin in the last six weeks prior to randomization. • 2. Administration of anti-diabetic drugs other than metformin within four weeks prior to randomization visit. Administration of thyroid preparations or thyroxine within six weeks prior to screening visit. […] (Note: Alcohol abuse includes heavy alcohol intake as defined by >3 drinks per day or >14 drinks per week, or binge drinking). • Elevated liver enzymes (alanine transaminase (ALT), […], alkaline phosphatase) greater than two times the upper limit of normal at screening. • Very high triglyceride level (>500 mg/dL) at screening. • Any clinically significant electrocardiogram (ECG) abnormality at screening or cardiovascular disease. Clinically significant cardiovascular disease will include: • 1. History of stroke, transient ischemic attack, or myocardial infarction within six months prior to screening, • 2. History of or currently have New York Heart Associate Class II-IV heart failure prior to screening, or • 3. Uncontrolled hypertension defined as blood pressure ≥160 mmHg (systolic) or ≥100 mmHg (diastolic) at screening.
# • The primary endpoint of the study was to compare the efficacy of Composition-3 to Sitagliptin & placebo in improving glycaemic control as assessed by A1c over a 04-week treatment period, with a secondary endpoint of comparing Composition-3 to Sitagliptin & placebo in change from baseline in FPG at week 04 • 1. Change from Baseline in Haemoglobin A1c (A1C) at Week 04 [Time Frame: Baseline and Week 04] A1C was measured as the percentage of glycosylated haemoglobin. Change in A1C following 04 weeks of therapy (i.e., A1C at Week 04 minus A1C at baseline) • 2. […]
smiles,measurement,setting,value
N[C@@H](CC(=O)N1CCn2c(nnc2C(F)(F)F)C1)Cc1cc(F)c(F)cc1F [Sitagliptin],Mean A1c (HbA1c) % week 04,"group mean n = 12, Week 04",6.66%
same,Mean FPG (mg/dl) week 04,"group mean n = 12, Week 04",160.53 mg/dL
same,% Improvement A1c (HbA1c),"group mean n = 12, Week 04 vs baseline",14.7%
same,Mean A1c (HbA1c) % baseline,"group mean n = 12, baseline",7.81%
same,Mean FPG (mg/dl) baseline,"group mean n = 12, baseline",200.68 mg/dL
same,FPG (mg/dl) Week 04,"individual patient, Week 04, before breakfast",155.06 mg/dl and 159.18 mg/dl and 156.1 mg/dl and 150.54 mg/dl and 158.1 mg/dl and 166.66 mg/dl and 157.66 mg/dl and 164.78 mg/dl (2×) and 182.58 mg/dl and 152.06 mg/dl and 158.54 mg/dl
same,A1c (HbA1c) % Week 04,"individual patient, Week 04, dosed orally at night",6.6% (4×) and 6.8% (3×) and 6.5% (2×) and 6.4% (2×) and 7.3%
same,A1c (HbA1c) % Baseline,"individual patient, baseline, T2D patients on metformin",7.9% (2×) and 8% and 7.6% (2×) and 7.7% (3×) and 7.8% (3×) and 8.2%
same,FPG (mg/dl) Baseline,"individual patient, baseline, before breakfast",203.94 mg/dl (2×) and 207.5 mg/dl and 193.26 mg/dl (2×) and 196.82 mg/dl (3×) and 200.38 mg/dl (3×) and 214.62 mg/dl
